According to patent US12594254B2, “Intranasal administration of n-acetylcysteine and uses thereof” (Neuronasal, Inc., priority 2022, dated 2026):

Assays:
Format in all cases: in vivo, human
[1] = test system: regional brain GSH/creatine ratio; experiment: 1H-MRS change from baseline of regional brain GSH/Creatine ratio after single dose IN NAC
Protocol: (§1) Various assays were designed and tested assess the feasibility of IN NAC administration for direct nose-to-brain delivery as shown and described for FIGS. 1-4. Assays include studies in healthy participants using ^1H-MRS assessment of change from baseline in NAC-derived metabolic markers in three brain regions (occipital cortex, striatum, and DLPF), following a single dose of 196 mg to 200 mg IN NAC at 1, 3, and 6 hours.
(§2) Magnetic resonance (MR) spectra of NAC-derived brain metabolites in three brain regions (occipital cortex, striatum, and DLPF) at baseline and 1, 3, and 6 hours following IN NAC were assessed. Percentage change from Baseline of GSH/Creatine and N-Acetylaspartate (NAA)/Creatine in the three regions by treatment group were plotted (FIGS. 3-4).

[2] = Blood PK of total NAC and GSH after a single dose of IN NAC in healthy participants
Protocol: as §1
Concentrations of the targeted metabolites were reported for various time points to assess total NAC and GSH concentrations. Mean (±standard error [SE]) of blood PK data were plotted on linear and semi logarithmic scales (FIGS. 1-2).

[3] = test system: NAA/creatine ratio; experiment: 1H-MRS change from baseline of regional brain NAA/Creatine ratio after single dose IN NAC; settings: for increase of NAA/creatine ratio post-dose: dorsolateral prefrontal cortex
Protocol: as §1, §2

mean percentage change from Baseline in NAC (blood) ([2]; 196 mg IN NAC, APTAR 5 mL CPS Syringe, 1 hour post-dose): 2881.66% | mean percentage change from Baseline in NAC (blood) ([2]; 196 mg IN NAC, APTAR 5 mL CPS Syringe, 3 hours post-dose): 1158.20% | mean percentage change from Baseline in NAC (blood) ([2]; 196 mg IN NAC, APTAR 5 mL CPS Syringe, 6 hours post-dose): 419.35% | mean percentage change from Baseline in NAC (blood) ([2]; 200 mg IN NAC, Teleflex MAD device, 1 hour post-dose): 2379.60% | mean percentage change from Baseline in NAC (blood) ([2]; 200 mg IN NAC, Teleflex MAD device, 3 hours post-dose): 1117.01% | mean percentage change from Baseline in NAC (blood) ([2]; 200 mg IN NAC, Teleflex MAD device, 6 hours post-dose): 438.17%
Compound: CC(=O)N[C@@H](CS)C(=O)O [NAC, N-acetylcysteine]
effect on regional brain GSH (overall) ([1]; 196 mg IN NAC, APTAR 5 mL CPS Syringe, 1, 3 and 6 hour post-dose timepoints): failed to produce consistent elevation | effect on regional brain GSH (overall) ([1]; 200 mg IN NAC, Teleflex MAD device, 5 participants with analyzable MRS data): time- and region-dependent increase | increase of regional brain GSH/creatine ratio relative to pre-dose baseline ([1]; dorsolateral prefrontal cortex (n=5), 200 mg IN NAC, Teleflex MAD device, 1 hour post-dose): ~17% | increase of regional brain GSH/creatine ratio relative to pre-dose baseline ([1]; dorsolateral prefrontal cortex (n=5), 200 mg IN NAC, Teleflex MAD device, 3 hours post-dose): ~42% | increase of regional brain GSH/creatine ratio relative to pre-dose baseline ([1]; dorsolateral prefrontal cortex (n=5), 200 mg IN NAC, Teleflex MAD device, 6 hours post-dose): ~34% | increase of regional brain GSH/creatine ratio relative to pre-dose baseline ([1]; dorsolateral prefrontal cortex, 196 mg IN NAC, APTAR 5 mL CPS Syringe (n=3), 1 hour): 18% | decrease of regional brain GSH/creatine ratio relative to pre-dose baseline ([1]; dorsolateral prefrontal cortex, 196 mg IN NAC, APTAR 5 mL CPS Syringe (n=3), 3 hours): 71% | increase of regional brain GSH/creatine ratio relative to pre-dose baseline ([1]; dorsolateral prefrontal cortex, 196 mg IN NAC, APTAR 5 mL CPS Syringe (n=3), 6 hours): 4% | increase of regional brain GSH/creatine ratio relative to pre-dose baseline ([1]; occipital cortex (n=5), 200 mg IN NAC, Teleflex MAD device, 1 hour post-dose): ~25% | increase of regional brain GSH/creatine ratio relative to pre-dose baseline ([1]; occipital cortex (n=5), 200 mg IN NAC, Teleflex MAD device, 3 hours post-dose): ~49% | increase of regional brain GSH/creatine ratio relative to pre-dose baseline ([1]; occipital cortex (n=5), 200 mg IN NAC, Teleflex MAD device, 6 hours post-dose): ~21% | decrease of regional brain GSH/creatine ratio relative to pre-dose baseline ([1]; occipital cortex, 196 mg IN NAC, APTAR 5 mL CPS Syringe (n=3), 1 hour): 17% | increase of regional brain GSH/creatine ratio relative to pre-dose baseline ([1]; occipital cortex, 196 mg IN NAC, APTAR 5 mL CPS Syringe (n=3), 3 hours): 2% | increase of regional brain GSH/creatine ratio relative to pre-dose baseline ([1]; occipital cortex, 196 mg IN NAC, APTAR 5 mL CPS Syringe (n=3), 6 hours): 1% | increase of regional brain GSH/creatine ratio relative to pre-dose baseline ([1]; striatum (n=4), 200 mg IN NAC, Teleflex MAD device, 1 hour post-dose): approximately 36% | increase of regional brain GSH/creatine ratio relative to pre-dose baseline ([1]; striatum (n=4), 200 mg IN NAC, Teleflex MAD device, 3 hours post-dose): ~20% | increase of regional brain GSH/creatine ratio relative to pre-dose baseline ([1]; striatum (n=4), 200 mg IN NAC, Teleflex MAD device, 6 hours post-dose): ~14% | increase of regional brain GSH/creatine ratio relative to pre-dose baseline ([1]; striatum, 196 mg IN NAC, APTAR 5 mL CPS Syringe (n=3), 1 hour): 2% | decrease of regional brain GSH/creatine ratio relative to pre-dose baseline ([1]; striatum, 196 mg IN NAC, APTAR 5 mL CPS Syringe (n=3), 3 hours): 11% | change of regional brain GSH/creatine ratio relative to pre-dose baseline ([1]; striatum, 196 mg IN NAC, APTAR 5 mL CPS Syringe (n=3), 6 hours): extreme variability | increase of NAA/creatine ratio post-dose ([3]; 196 mg dose group, second of two values, time point unclear (1, 3 and 6 hours named)): 9.0% | increase of NAA/creatine ratio post-dose ([3]; 196 mg dose group, time point unclear (1, 3 and 6 hours named)): 7.9% | increase of NAA/creatine ratio post-dose ([3]; 200 mg dose group, 1 hour post-dose): 4.5% | increase of NAA/creatine ratio post-dose ([3]; 200 mg dose group, 3 hours post-dose): 6.0% | increase of NAA/creatine ratio post-dose ([3]; 200 mg dose group, 6 hours post-dose): 3.8% | post-dose changes in the NAA/creatine ratio relative to baseline ([3]; striatum and occipital cortex, both dose groups (200 mg and 196 mg), described as minimal): ≤ 2.5% | post-dose changes in the NAA/creatine ratio ([3]; striatum, 6 hours, 196 mg cohort): highly variable changes
